Tests used:
[1] = Inhibition of Mycobacterium tuberculosis LMW-PTP
[2] = biological target: T1, Low molecular weight phosphotyrosine protein phosphatase (Homo sapiens, UniProt P24666); experiment: Inhibition of human LMW-PTPase isoform 1
T1 sequence (P24666 whole entry): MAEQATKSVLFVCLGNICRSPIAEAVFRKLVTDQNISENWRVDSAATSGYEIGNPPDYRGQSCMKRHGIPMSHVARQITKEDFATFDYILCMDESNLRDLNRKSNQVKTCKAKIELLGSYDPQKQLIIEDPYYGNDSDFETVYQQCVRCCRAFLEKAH

[3] = biological target: T1, Low molecular weight phosphotyrosine protein phosphatase; experiment: Inhibition of human LMW-PTPase isoform 2
[4] = biological target: T2, Low molecular weight phosphotyrosine protein phosphatase (Bos taurus) (UniProt P11064); experiment: Inhibition of bovine kidney LMW-PTPase at 400 uM using pNPP substrate
T2 sequence (whole entry): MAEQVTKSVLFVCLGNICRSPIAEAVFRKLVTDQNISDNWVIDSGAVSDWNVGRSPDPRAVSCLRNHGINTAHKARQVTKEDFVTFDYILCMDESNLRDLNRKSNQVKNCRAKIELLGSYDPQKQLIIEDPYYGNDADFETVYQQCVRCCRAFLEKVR

[5] = biological target: T2, Low molecular weight phosphotyrosine protein phosphatase (Bos taurus); experiment: Activation of bovine kidney LMW-PTPase at 400 uM using pNPP substrate
[6] = biological target: T3, Tyrosine-protein phosphatase non-receptor type 1 (Homo sapiens, UniProt P18031); experiment: Inhibition of human PTP1B
T3 sequence (P18031 whole entry): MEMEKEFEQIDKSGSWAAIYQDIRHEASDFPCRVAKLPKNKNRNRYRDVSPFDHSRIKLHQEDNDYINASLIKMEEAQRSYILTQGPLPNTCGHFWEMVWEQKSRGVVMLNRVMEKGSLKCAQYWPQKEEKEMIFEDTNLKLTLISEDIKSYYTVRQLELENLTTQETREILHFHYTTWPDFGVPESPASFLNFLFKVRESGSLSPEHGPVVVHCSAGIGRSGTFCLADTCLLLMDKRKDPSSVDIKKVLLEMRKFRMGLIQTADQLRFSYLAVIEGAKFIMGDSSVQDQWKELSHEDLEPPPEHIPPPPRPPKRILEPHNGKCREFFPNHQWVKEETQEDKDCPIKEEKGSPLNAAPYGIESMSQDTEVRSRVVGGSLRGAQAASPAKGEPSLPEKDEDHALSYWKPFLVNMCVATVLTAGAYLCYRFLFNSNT

| Compound | IC50 [2] [µM] | IC50 [3] [µM] | inhibition [4] [%] | also measured |
| --- | --- | --- | --- | --- |
| C/C(=C1\C=CC=N1)c1ccc(-c2ccc[nH]2)o1 |  |  |  | IC50 [1]: 9.4 µM |
| Nc1ccccc1/C=C/P(=O)(O)O | 5300 | 13000 |  |  |
| O=C(CCc1ccc(O)cc1)c1c(O)cc(O)cc1O |  |  | 14 |  |
| Nc1ccccc1CCP(=O)(O)O | 250 | 1400 |  |  |
| O=P(O)(O)CCc1cncc2cc[nH]c12 | 1790 | 2760 |  |  |
| O=c1c(O)c(-c2cc(O)c(O)c(O)c2)oc2cc(O)cc(O)c12 |  |  | 14 |  |
| CCCCCCCCCCCCC[C@H]1OC(=O)[C@H](COCc2ccccc2)NC(=O)[C@H]([C@@H](C)O)NC(=O)[C@H](C(C)C)NC(=O)[C@H]1C |  |  |  | IC50 [1]: 8.8 µM |
| C[C@@H]1O[C@@H](OC[C@H]2O[C@@H](Oc3c(-c4ccc(O)c(O)c4)oc4cc(O)cc(O)c4c3=O)[C@H](O)[C@@H](O)[C@@H]2O)[C@H](O)[C@H](O)[C@H]1O |  |  | 14 |  |
| Nc1ccncc1CCP(=O)(O)O | 300 | 2210 |  |  |
| O=c1c(O)c(-c2ccc(O)c(O)c2)oc2cc(O)cc(O)c12 |  |  |  | fold change (FC) [5]: 2.6 |
| O=C(O)c1ccc(COc2cccc(/C=C3\S/C(=N\c4ccccc4)N(Cc4ccc(C(=O)O)cc4)C3=O)c2)cc1 | 0.5 | 0.22 |  |  |
| O=c1c(O)c(-c2ccc(O)cc2O)oc2cc(O)cc(O)c12 |  |  | 35 |  |
| O=C(O)c1ccc(COc2ccc(/C=C3\S/C(=N\c4ccccc4)N(Cc4ccc(C(=O)O)cc4)C3=O)cc2)cc1 | 5.8 |  |  | IC50 [6]: 0.55 µM |
| O=P(O)(O)CCc1cccc2ccccc12 | 14000 | 10000 |  |  |
| Oc1cc(O)c2c(c1)OC(c1ccc(O)c(O)c1)C(O)C2 (configuration not stated) |  |  | 14 |  |
